Test results reported in patent US20240197871A1, “COMBINATION OF A CAR T CELL THERAPY AND AN IMMUNOMODULATORY COMPOUND FOR TREATMENT OF LYMPHOMA” (Juno Therapeutics, Inc., priority 2021, published 2024).

Key:
[1] = target: T1, Aiolos (Homo sapiens, UniProt Q96SW2+Q9UKT9); assay: Aiolos degradation in stimulated anti-CD19 CAR T cells (flow cytometry MFI); assay type: cell-based
T1 construct: analyzed by flow cytometry to assess intracellular levels of Ikaros and Aiolos in CAR+ T cells; endogenous in cells; host or cells: primary human CD4+ and CD8+ T cells from healthy donors, lentivirally transduced with an anti-CD19 CAR
From the text: (§1) T cell compositions containing anti-CD19 CAR-expressing T cells were generated from leukapheresis samples from five healthy human adult donors by a process that included immunoaffinity-based selection of T cells by separately selecting CD4+ and CD8+ cells from the samples, resulting in two compositions enriched for CD4+ and CD8+ cells, respectively, per donor. Cells of the enriched CD4+ and CD8+ compositions were separately activated with anti-CD3/anti-CD28 beads and subjected to lentiviral transduction with a vector encoding an anti-CD19 CAR. The anti-CD19 CAR contained an anti-CD19 single-chain variable fragment (scFv) derived from a murine antibody (variable region derived from FMC63), an immunoglobulin-derived spacer, a transmembrane domain derived from CD28, a costimulatory region derived from 4-1BB, and a CD3-zeta intracellular signaling domain. The expression construct in the viral vector further contained sequences encoding a surrogate surface marker for CAR expression, which was separated from the CAR-encoding sequence by a T2A ribosome skip sequence. Transduced populations then were separately incubated in the presence of stimulating reagents for cell expansion. Expanded CD4+ and CD8+ cells were formulated and cryopreserved separately and stored.
(§2) Prior to use, the cryopreserved CD4+ and CD8+ engineered cell compositions were thawed and combined at approximately a 1:1 CD4:CD8 ratio for each donor. Cells of the combined composition were then stimulated at 37° C. with 5% CO2 for 24 hours with 30 µg/mL of a CAR-specific anti-idiotypic antibody (see, e.g., WO2018/023100).
(§3) Following incubation, the stimulated cells were stained with antibodies and analyzed by flow cytometry to assess intracellular levels of Ikaros and Aiolos in CAR+ T cells, as measured by median fluorescence intensity (MFI). MFI values for Ikaros and Aiolos were normalized and calculated as a percentage relative to vehicle control.

[2] = target: T2, Ikaros (Homo sapiens, UniProt Q13422+Q96SW2); assay: Ikaros degradation in stimulated anti-CD19 CAR T cells (flow cytometry MFI); assay type: cell-based
T2 construct: analyzed by flow cytometry to assess intracellular levels of Ikaros and Aiolos in CAR+ T cells; endogenous in cells; host or cells: primary human CD4+ and CD8+ T cells from healthy donors, lentivirally transduced with an anti-CD19 CAR
From the text: as §1, §2, §3

[3] = system: anti-CD19 CAR T cells; assay: Proliferation (cell doublings) of stimulated anti-CD19 CAR T cells, IncuCyte; assay type: cell-based, human
Protocol: Anti-CD19 CAR-expressing T cell compositions were generated from three different healthy donors as described in Example 1. Prior to use, cryopreserved CD4+ and CD8+ engineered cell compositions were thawed and combined at approximately a 1:1 CD4:CD8 ratio.
Following incubation, stimulated CAR T cells were harvested, washed twice in media, and assessed.
Proliferation of T cells during culture with the plate-bound anti-idiotypic antibody was monitored for seven days using an IncuCyte® Live Cell Analysis System (Essen BioScience Inc.), and the number of cell doublings of cells stimulated with 30 μg/mL of anti-idiotypic antibody is shown in FIG. 2B and FIG. 2C for the three donors (mean±SEM).

[4] = system: RL CD19+ tumor cells; assay: Cytolytic function: co-culture of anti-CD19 CAR T cells with RL CD19+ tumor cells; assay type: cell-based; details: E:T 1:1
Protocol: To do so, CAR T cells were plated on ploy-D-lysine plates. CD19+ tumor cells transduced with IncuCyte® NucLight Red (Essen BioScience Inc.) were then added to the CAR T cells in addition to Compound C or vehicle control. Tumor cell number was measured over multiple days.
Treatment with CAR T cells in combination with either immunomodulatory compound led to lower tumor cell numbers than did CAR T cells alone or the compounds alone.

[5] = system: Granta-519 lymphoma tumor spheroids or A549 tumor spheroids; assay: Chronic stimulation with rescue treatment during re-challenge with tumor spheroids; assay type: cell-based
Protocol: Anti-CD19 CAR-expressing T cells, produced as described in Example 1, were chronically stimulated as described in Example 3, but in the absence of Compound C during stimulation. Instead, chronically stimulated CAR T cells were treated with Compound C during re-challenge with Granta-519 lymphoma tumor spheroids or A549 tumor spheroids, after which cytolytic activity, cytokine production, and gene expression of the CAR T Cells was assessed.
FIGS. 4B and 4C show the volume of tumor spheroids co-cultured with anti-CD19 CAR T cells in the presence of Compound C.

[6] = system: Raji lymphoma tumor spheroids; assay: Simulated intermittent dosing during chronic stimulation, re-challenge with tumor spheroids; assay type: cell-based; details: for cytolytic activity of chronically stimulated CAR T cells over four-day re-challenge: P<0.0001
Protocol: The effects of an intermittent Compound C dosing schedule on CAR T cells was assessed.
Anti-CD19 CAR-expressing T cells, produced as described in Example 1, were chronically stimulated as described in Example 3 in the presence of Compound C. During chronic stimulation, Compound C was present at (i) 50 nM for one day and 1 nM for the remaining five days, (ii) 25 nM for one day and 0.5 nM for the remaining five days, (iii) 10 nM for one day and absent for the remaining five days, or (iv) 1 nM for all six days. Stimulated CAR T cells were then re-challenged with Raji lymphoma tumor spheroids in the absence of Compound C, after which cytolytic activity was assessed.
Similar results are shown in FIG. 7B for a separate experiment in which CAR T cells were chronically stimulated for 7 days in the presence or absence of Compound C. In this experiment, Compound C was present at (i) 50 nM for one day and 1 nM for the remaining six days of stimulation, (ii) 25 nM for one day and 0.5 nM for the remaining six days of stimulation, (iii) 10 nM for all seven days of stimulation, or (iv) 1 nM for all seven days of stimulation. Stimulated CAR T cells were then re-challenged with Raji lymphoma tumor spheroids in the absence of Compound C, after which cytolytic activity was assessed over a four-day period. […] The CAR T cells stimulated for seven days in the presence or absence of Compound C were also analyzed for phenotypic T cell memory markers using flow cytometry following chronic stimulation. […] CD27/CCR7 expression, which is a marker for less differentiated, naïve-like T cells, was highest in CAR-expressing CD8 T cells stimulated in the presence of Compound C at 50 nM for one day and 1 nM for the remaining six days of stimulation (* P<0.05).

[7] = approximately 10^-1 to 10^4 nM, 24 hours
[8] = at all compound concentration levels tested

T2 sequence (Q13422 whole entry): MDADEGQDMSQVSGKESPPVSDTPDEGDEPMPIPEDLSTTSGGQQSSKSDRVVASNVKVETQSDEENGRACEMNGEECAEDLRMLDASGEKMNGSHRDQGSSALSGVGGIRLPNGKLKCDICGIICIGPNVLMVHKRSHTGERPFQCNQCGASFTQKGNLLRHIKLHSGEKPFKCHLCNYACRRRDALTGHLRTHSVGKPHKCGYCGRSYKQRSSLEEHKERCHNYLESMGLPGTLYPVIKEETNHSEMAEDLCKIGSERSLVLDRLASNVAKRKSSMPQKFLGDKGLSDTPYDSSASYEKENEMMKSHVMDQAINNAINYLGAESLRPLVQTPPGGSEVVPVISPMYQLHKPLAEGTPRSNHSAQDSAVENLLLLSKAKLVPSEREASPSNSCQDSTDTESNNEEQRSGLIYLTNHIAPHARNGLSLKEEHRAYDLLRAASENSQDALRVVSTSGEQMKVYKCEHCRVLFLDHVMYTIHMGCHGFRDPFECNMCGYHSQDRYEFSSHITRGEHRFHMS
T2 sequence (Q96SW2 whole entry): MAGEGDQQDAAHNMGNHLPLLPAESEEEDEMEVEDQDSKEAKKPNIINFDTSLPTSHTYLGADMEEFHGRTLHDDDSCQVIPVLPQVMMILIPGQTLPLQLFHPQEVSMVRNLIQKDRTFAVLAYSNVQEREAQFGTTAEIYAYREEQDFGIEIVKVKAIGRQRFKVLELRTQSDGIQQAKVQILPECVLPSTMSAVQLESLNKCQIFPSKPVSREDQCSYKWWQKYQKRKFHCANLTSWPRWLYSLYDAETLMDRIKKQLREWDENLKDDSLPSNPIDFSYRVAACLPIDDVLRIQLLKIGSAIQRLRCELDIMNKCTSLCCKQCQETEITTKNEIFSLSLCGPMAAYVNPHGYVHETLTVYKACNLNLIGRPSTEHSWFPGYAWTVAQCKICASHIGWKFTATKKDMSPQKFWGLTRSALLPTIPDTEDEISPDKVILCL
T2 sequence (Q16531 whole entry partner): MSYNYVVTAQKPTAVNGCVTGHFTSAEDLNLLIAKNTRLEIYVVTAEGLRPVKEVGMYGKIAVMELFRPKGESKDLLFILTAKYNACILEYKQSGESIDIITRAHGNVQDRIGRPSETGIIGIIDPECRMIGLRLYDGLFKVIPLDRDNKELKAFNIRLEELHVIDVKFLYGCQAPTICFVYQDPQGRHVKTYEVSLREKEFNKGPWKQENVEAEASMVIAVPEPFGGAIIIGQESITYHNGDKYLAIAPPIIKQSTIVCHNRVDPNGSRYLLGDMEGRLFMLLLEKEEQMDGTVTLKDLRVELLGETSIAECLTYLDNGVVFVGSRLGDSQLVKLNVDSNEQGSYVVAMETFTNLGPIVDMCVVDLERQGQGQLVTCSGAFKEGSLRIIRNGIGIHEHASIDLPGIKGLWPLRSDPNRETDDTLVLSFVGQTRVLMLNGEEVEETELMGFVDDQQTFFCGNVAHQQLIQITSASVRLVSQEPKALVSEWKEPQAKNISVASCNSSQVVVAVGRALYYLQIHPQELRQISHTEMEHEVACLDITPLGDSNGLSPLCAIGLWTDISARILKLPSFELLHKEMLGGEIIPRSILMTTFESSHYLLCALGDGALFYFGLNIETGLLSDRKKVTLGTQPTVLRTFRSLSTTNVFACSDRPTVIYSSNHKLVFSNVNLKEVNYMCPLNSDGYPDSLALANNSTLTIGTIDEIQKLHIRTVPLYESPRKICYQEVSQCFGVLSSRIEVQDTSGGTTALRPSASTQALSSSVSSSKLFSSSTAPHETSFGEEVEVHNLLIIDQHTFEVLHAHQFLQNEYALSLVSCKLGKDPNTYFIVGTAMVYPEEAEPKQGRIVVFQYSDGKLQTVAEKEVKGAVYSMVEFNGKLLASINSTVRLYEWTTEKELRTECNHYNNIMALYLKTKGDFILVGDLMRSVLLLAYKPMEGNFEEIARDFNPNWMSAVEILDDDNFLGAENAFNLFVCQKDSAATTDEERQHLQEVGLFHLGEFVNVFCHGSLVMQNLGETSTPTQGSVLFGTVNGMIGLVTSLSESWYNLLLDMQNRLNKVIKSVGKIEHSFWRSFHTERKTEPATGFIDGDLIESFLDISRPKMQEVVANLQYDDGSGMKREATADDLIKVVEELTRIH
T1 sequence (Q9UKT9 whole entry): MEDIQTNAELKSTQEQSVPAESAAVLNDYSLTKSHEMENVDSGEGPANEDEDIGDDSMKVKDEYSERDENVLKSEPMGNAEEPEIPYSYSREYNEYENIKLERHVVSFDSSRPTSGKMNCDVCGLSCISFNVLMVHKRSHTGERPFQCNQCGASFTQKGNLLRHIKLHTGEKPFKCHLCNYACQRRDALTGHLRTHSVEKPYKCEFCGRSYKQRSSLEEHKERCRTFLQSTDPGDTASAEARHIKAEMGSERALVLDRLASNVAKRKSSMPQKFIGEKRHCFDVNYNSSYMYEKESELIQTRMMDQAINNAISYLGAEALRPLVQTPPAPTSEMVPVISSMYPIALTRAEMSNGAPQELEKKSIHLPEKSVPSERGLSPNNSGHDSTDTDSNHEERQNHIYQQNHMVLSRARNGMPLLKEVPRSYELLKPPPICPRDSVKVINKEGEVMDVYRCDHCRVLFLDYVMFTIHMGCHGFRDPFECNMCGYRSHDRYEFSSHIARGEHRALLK
T1 sequence (Q96SW2 whole entry): as the sequence (Q96SW2 whole entry) above
T1 sequence (Q16531 whole entry partner): as the sequence (Q16531 whole entry partner) above

## O=C1CC[C@H](N2C(=O)c3cccc(NCc4ccc(CN5CC(N6CCOCC6)C5)cc4F)c3C2=O)C(=O)N1 [Compound C, (S)-2-(2,6-dioxopiperidin-3-yl)-4-((2-fluoro-4-((3-morpholinoazetidin-1-yl)methyl)benzyl)amino)isoindoline-1,3-dione]
[1]; anti-CD19 CAR T cells, 24 hours stimulation with anti-idiotypic antibody, concentration reducing MFI to 50%, average of five donors, read-out: Average EC50 Values (95% Confidence Interval), Aiolos
  DC50: 0.25 nM
[1]; [7]
  intracellular Aiolos expression (MFI relative to vehicle control): Concentration-dependent decreases
[1]; [8]
  Aiolos expression compared with Compound 2 or Compound 1: lower
[2]; anti-CD19 CAR T cells, 24 hours stimulation with anti-idiotypic antibody, concentration reducing MFI to 50%, average of five donors, read-out: Average EC50 Values (95% Confidence Interval), Ikaros
  DC50: 0.31 nM
[2]; [7]
  intracellular Ikaros expression (MFI relative to vehicle control): Concentration-dependent decreases
[2]; [8]
  Ikaros expression compared with Compound 2 or Compound 1: lower
[3]; 1 nM, P<0.001
  CAR T cell proliferation: decreased
[3]; 10 nM, P<0.0001
  CAR T cell proliferation: further decreased
[3]; at all doses tested
  decrease of cell doublings compared with the other compounds: greatest decrease of doublings
[4]; compound at 0.001 μM with anti-CD19 CAR T cells
  RL tumor cell number vs CAR T cells alone or compound alone: lower
[4]; compound at 0.01 μM with anti-CD19 CAR T cells
  RL tumor cell number vs CAR T cells alone or compound alone: lower
[4]; compound at 0.1 μM with anti-CD19 CAR T cells
  RL tumor cell number vs CAR T cells alone or compound alone: lower
[5]; 1 nM during re-challenge (rescue) with CAR T cells, P<0.0001
  tumor volume vs chronically stimulated CAR T cells alone or compound alone: more reduced
[5]; 1 nM during re-challenge (rescue), P<0.0001
  IFNγ cytokine production five days after re-challenge: highest
[5]; 10 nM during re-challenge (rescue) with CAR T cells, P<0.0001
  tumor volume vs chronically stimulated CAR T cells alone or compound alone: more reduced
[5]; 10 nM during re-challenge (rescue), P<0.05
  IFNγ cytokine production five days after re-challenge: increased
[6]; 25 nM for one day and 0.5 nM for the remaining five days of stimulation
  cytolytic activity of chronically stimulated CAR T cells (tumor cell number during re-challenge): most increase in cytolytic activity
[6]; 25 nM for one day and 0.5 nM for the remaining six days of stimulation
  cytolytic activity of chronically stimulated CAR T cells over four-day re-challenge: improved cytolytic activity
[6]; 50 nM for one day and 1 nM for the remaining five days of stimulation
  cytolytic activity of chronically stimulated CAR T cells (tumor cell number during re-challenge): most increase in cytolytic activity
[6]; 50 nM for one day and 1 nM for the remaining six days of stimulation
  cytolytic activity of chronically stimulated CAR T cells over four-day re-challenge: improved cytolytic activity
